pKd: −log10 of the molar value. Numbered stars: 1 amine (or outer) side, 2 acyl side, 3 side chain; on linkers, the order of the positions; unused ones are H or OH. Bridge positions count the residues as written; N and C are the ends. Square brackets hold non-standard residues; d marks the D form. Peptide text beside a SMILES is read from it. * marks the point of attachment. Trp(1-CH2COOH) = N[C@@H](Cc1cn(CC(=O)O)c2ccccc12)C(=O)O; CH2CON(CH2CH2)2NCH2COOH = O=C(O)CN1CCN(C(=O)C*)CC1; Nle(6-morpholino) = N[C@@H](CCCCN1CCOCC1)C(=O)O; Phe(3-COOH) = N[C@@H](Cc1cccc(C(=O)O)c1)C(=O)O; Trp(7-aza) = N[C@@H](Cc1c[nH]c2ncccc12)C(=O)O; NMePhe(3-Cl) = CN[C@@H](Cc1cccc(Cl)c1)C(=O)O; 3Pal(6-NH2) = Nc1ccc(C[C@H](N)C(=O)O)cn1; PEG8 = NCCOCCOCCOCCOCCOCCOCCOCCOCCC(=O)O; X3 = Cc1ccc(C[C@H](N[*:1])C(=O)[*:2])cn1; NMe4Pal = CN[C@@H](Cc1ccncc1)C(=O)O; NMeY = CN[C@@H](Cc1ccc(O)cc1)C(=O)O; Nva(3-Et) = CCC(CC)[C@H](N)C(=O)O; 4Pal = N[C@@H](Cc1ccncc1)C(=O)O; PEG4 = NCCOCCOCCOCCOCCC(=O)O; Carboxymethyl = O=C(O)C*
Assays:
[1] = biological target: T1, human transferrin receptor (hTfR) (Homo sapiens, UniProt P02786); assay: SPR measurement under pH 6.0 conditions (Biacore T200, NTA chip, immobilized hTfR); type: binding; conditions: read-out: hTfR SPR pH6.0 KD
T1 sequence (P02786 whole entry): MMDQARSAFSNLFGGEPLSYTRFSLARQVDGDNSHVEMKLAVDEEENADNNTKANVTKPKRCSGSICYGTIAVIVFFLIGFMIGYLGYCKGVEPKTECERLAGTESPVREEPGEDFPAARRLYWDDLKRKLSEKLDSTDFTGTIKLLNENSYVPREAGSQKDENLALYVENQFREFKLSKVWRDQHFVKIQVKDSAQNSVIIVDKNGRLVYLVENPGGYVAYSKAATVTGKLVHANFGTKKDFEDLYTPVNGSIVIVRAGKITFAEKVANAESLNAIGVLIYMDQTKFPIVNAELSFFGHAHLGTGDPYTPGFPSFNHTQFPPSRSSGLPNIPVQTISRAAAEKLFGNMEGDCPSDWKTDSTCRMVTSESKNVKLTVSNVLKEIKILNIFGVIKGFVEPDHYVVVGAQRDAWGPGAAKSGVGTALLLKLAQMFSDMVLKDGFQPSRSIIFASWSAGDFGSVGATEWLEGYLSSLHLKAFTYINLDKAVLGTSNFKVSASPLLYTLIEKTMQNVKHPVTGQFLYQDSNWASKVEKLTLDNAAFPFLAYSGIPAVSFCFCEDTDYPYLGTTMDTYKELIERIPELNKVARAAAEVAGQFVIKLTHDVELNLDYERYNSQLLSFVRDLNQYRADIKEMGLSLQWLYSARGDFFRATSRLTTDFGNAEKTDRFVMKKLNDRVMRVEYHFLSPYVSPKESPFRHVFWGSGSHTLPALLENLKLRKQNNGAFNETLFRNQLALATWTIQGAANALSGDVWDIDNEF
Description: Molecular interactions between the synthesized peptides and the transferrin receptor (hTfR) were evaluated by surface plasmon resonance (SPR) using the following method. The specific assay procedure is described below.
An NTA sensor chip (Cytiva) was inserted in a Biacore T200 (Cytiva), a priming operation was performed 3 times with a running buffer: HBS-P+ pH 6.0 (Cytiva), and an equilibrium state was created at a flow rate of 30 µL/min. A ligand immobilization operation was carried out at a flow rate of 10 µL/min.
The surface of the NTA sensor chip was washed with 350 mM EDTA solution, nickel ions were loaded into the carbomethyldextran chains of the sensor chip with a 500 µM aqueous nickel chloride solution, and then washing was performed with 3 mM EDTA solution. After mixing 50 µL of each of 60 mM EDC solution (Cytiva) and 650 mM NHS solution (Cytiva), the mixture was reacted for 420 seconds at a flow rate of 10 µL/min. 150 µL of 0.2 µM hTfR solution was prepared by diluting with 10 mM acetic acid solution (pH 5.0), and reacted for 420 seconds at a flow rate of 10 µL/min to immobilize hTfR on the NTA sensor chip. For the human transferrin receptor (hTfR), the recombinant hTfR described in Example 2 of WO2018/124121 was used. After immobilization, capping was performed by reacting with 1.0 M ethanolamine aqueous solution (Cytiva) at a flow rate of 10 µL/min for 420 seconds. Peptide lysate prepared in DMSO to 10 mM was diluted with the running buffer to a final concentration of 10 µM peptide lysate, and then peptide solutions of 250 nM, 125 nM, 62.5 nM, 25 nM, and 12.5 nM were prepared. The kinetics of the peptide against hTfR was obtained by SPR measurement using the above samples.
The kinetic evaluation model was single-cycle kinetics, and curve fitting was performed using Biacore T200 Evaluation Software Version 3.0 (Cytiva). The binding of the peptide to hTfR was evaluated by performing curve fitting on the obtained sensorgram by the least squares method and obtaining the kon value, the koff value, and the KD value.

[2] = biological target: T1, human transferrin receptor (hTfR); assay: SPR measurement under pH 7.4 conditions (Biacore T200, CM3 chip, hTfR captured by His Tag antibody); type: binding; conditions: read-out: hTfR SPR pH7.4 KD
[3] = SPR, pH 6.0, peptide with the linker named in the table
[4] = SPR, pH 7.4, peptide with the linker named in the table

SMILES | pKd [1, 3] | pKd [2, 4] | pKd ([1]; pH 6.0, single-cycle kinetics) | pKd ([2]; pH 7.4, single-cycle kinetics)
CCC(CC)[C@@H]1NC(=O)[C@H](Cc2ccc(OCC(=O)O)cc2)NC(=O)[C@H](Cc2ccc(O)cc2)NC(=O)[C@H](CC(N)=O)NC(=O)[C@H](Cc2cn(CC(=O)O)c3ccccc23)NC(=O)[C@H](C(C)C)NC(=O)[C@H](Cc2cccc(Cl)c2)N(C)C(=O)[C@H](C(C)C)NC(=O)[C@H](C)NC(=O)CSC[C@@H](C(=O)NCCOCCOCCOCCOCCC(N)=O)NC(=O)[C@H](Cc2ccncc2)N(C)C(=O)[C@H](Cc2cccc(C(=O)O)c2)NC(=O)[C@H](CCCNC(=N)N)NC(=O)[C@H](CCC(N)=O)NC(=O)[C@H]([C@@H](C)CC)NC1=O [compound 96] ({CH2CO}-AV[NMePhe(3-Cl)]V[Trp(1-CH2COOH)]NYY(Carboxymethyl)[Nva(3-Et)]IQR[Phe(3-COOH)][NMe4Pal]C[PEG4]-NH2; thioether N-15) | 7.04 | 7.74 |  | 
CC[C@H](C)[C@@H]1NC(=O)[C@H](Cc2ccc(OCC(=O)N3CCN(CC(=O)O)CC3)cc2)NC(=O)[C@H](Cc2ccc(O)cc2)NC(=O)[C@H](CC(N)=O)NC(=O)[C@H](Cc2c[nH]c3ncccc23)NC(=O)[C@H](C(C)C)NC(=O)[C@H](Cc2cccc(Cl)c2)N(C)C(=O)[C@H](C(C)C)NC(=O)[C@H](C)NC(=O)CSC[C@@H](C(=O)NCCOCCOCCOCCOCCC(N)=O)NC(=O)[C@H](Cc2ccc(O)cc2)N(C)C(=O)[C@H](Cc2ccncc2)NC(=O)[C@H](CCCCN2CCOCC2)NC(=O)[C@H](CCC(N)=O)NC(=O)[C@H]([C@@H](C)CC)NC1=O [compound 23] |  |  | 7.48 | 8.46
CCC(CC)[C@@H]1NC(=O)[C@H](Cc2ccc(OCC(=O)O)cc2)NC(=O)[C@H](Cc2ccc(O)cc2)NC(=O)[C@H](CC(N)=O)NC(=O)[C@H](Cc2cn(CC(=O)O)c3ccccc23)NC(=O)[C@H](C(C)C)NC(=O)[C@H](Cc2cccc(Cl)c2)N(C)C(=O)[C@H](C(C)C)NC(=O)[C@H](C)NC(=O)CSC[C@@H](C(=O)NCCOCCOCCOCCOCCC(N)=O)NC(=O)[C@H](Cc2ccc(O)cc2)N(C)C(=O)[C@H](Cc2ccc(C)nc2)NC(=O)[C@H](CCCNC(=N)N)NC(=O)[C@H](CCC(N)=O)NC(=O)[C@H]([C@@H](C)CC)NC1=O [compound 100] ({CH2CO}-AV[NMePhe(3-Cl)]V[Trp(1-CH2COOH)]NYY(Carboxymethyl)[Nva(3-Et)]IQR[X3][NMeY]C[PEG4]-NH2; thioether N-15) | 6.95 | 7.90 |  | 
CCC(CC)[C@@H]1NC(=O)[C@H](Cc2ccc(OCC(=O)O)cc2)NC(=O)[C@H](Cc2ccc(O)cc2)NC(=O)[C@H](CC(N)=O)NC(=O)[C@H](Cc2cn(CC(=O)O)c3ccccc23)NC(=O)[C@H](C(C)C)NC(=O)[C@H](Cc2cccc(Cl)c2)N(C)C(=O)[C@H](C(C)C)NC(=O)[C@H](C)NC(=O)CSC[C@@H](C(=O)NCCOCCOCCOCCOCCC(N)=O)NC(=O)[C@H](Cc2cccc(Cl)c2)N(C)C(=O)[C@H](Cc2cccc(C(=O)O)c2)NC(=O)[C@H](CCCNC(=N)N)NC(=O)[C@H](CCC(N)=O)NC(=O)[C@H]([C@@H](C)CC)NC1=O [compound 94] ({CH2CO}-AV[NMePhe(3-Cl)]V[Trp(1-CH2COOH)]NYY(Carboxymethyl)[Nva(3-Et)]IQR[Phe(3-COOH)][NMePhe(3-Cl)]C[PEG4]-NH2; thioether N-15) | 7.21 | 7.92 |  | 
CC[C@H](C)[C@@H]1NC(=O)[C@H](Cc2ccc(OCC(=O)O)cc2)NC(=O)[C@H](Cc2ccc(O)cc2)NC(=O)[C@H](CC(N)=O)NC(=O)[C@H](Cc2c[nH]c3ncccc23)NC(=O)[C@H](C(C)C)NC(=O)[C@H](Cc2cccc(Cl)c2)N(C)C(=O)[C@H](C(C)C)NC(=O)[C@H](C)NC(=O)CSC[C@@H](C(=O)NCCOCCOCCOCCOCCC(N)=O)NC(=O)[C@H](Cc2ccc(O)cc2)N(C)C(=O)[C@H](Cc2ccncc2)NC(=O)[C@H](CCCNC(=N)N)NC(=O)[C@H](CCC(=O)NCCOCCOCCOCCOCCC(=O)O)NC(=O)[C@H]([C@@H](C)CC)NC1=O [compound 63] |  |  | 7.06 | 7.63
CCC(CC)[C@@H]1NC(=O)[C@H](Cc2ccc(OCC(=O)O)cc2)NC(=O)[C@H](Cc2ccc(O)cc2)NC(=O)[C@H](CC(N)=O)NC(=O)[C@H](Cc2cn(CC(=O)O)c3ccccc23)NC(=O)[C@H](C(C)C)NC(=O)[C@H](Cc2cccc(Cl)c2)N(C)C(=O)[C@H](C(C)C)NC(=O)[C@H](C)NC(=O)CSC[C@@H](C(=O)NCCOCCOCCOCCOCCC(N)=O)NC(=O)[C@H](Cc2ccc(O)cc2)N(C)C(=O)[C@H](Cc2cccc(C(=O)O)c2)NC(=O)[C@H](CCCCN2CCOCC2)NC(=O)[C@H](CCCCN2CCOCC2)NC(=O)[C@H]([C@@H](C)CC)NC1=O [compound 109] ({CH2CO}-AV[NMePhe(3-Cl)]V[Trp(1-CH2COOH)]NYY(Carboxymethyl)[Nva(3-Et)]I[Nle(6-morpholino)][Nle(6-morpholino)][Phe(3-COOH)][NMeY]C[PEG4]-NH2; thioether N-15) | 7.95 | 8.16 |  | 
CC[C@H](C)[C@@H]1NC(=O)[C@H](Cc2ccc(OCC(=O)O)cc2)NC(=O)[C@H](Cc2ccc(O)cc2)NC(=O)[C@H](CC(N)=O)NC(=O)[C@H](Cc2c[nH]c3ncccc23)NC(=O)[C@H](C(C)C)NC(=O)[C@H](Cc2cccc(Cl)c2)N(C)C(=O)[C@H](C(C)C)NC(=O)[C@H](C)NC(=O)CSC[C@@H](C(=O)NCCOCCOCCOCCOCCC(N)=O)NC(=O)[C@H](Cc2ccc(O)cc2)N(C)C(=O)[C@H](CCC(=O)NCCOCCOCCOCCOCCOCCOCCOCCOCCC(=O)O)NC(=O)[C@H](CCCNC(=N)N)NC(=O)[C@H](CCC(N)=O)NC(=O)[C@H]([C@@H](C)CC)NC1=O [compound 139] ({CH2CO}-AV[NMePhe(3-Cl)]V[Trp(7-aza)]NYY(Carboxymethyl)IIQRE(PEG8)[NMeY]C[PEG4]-NH2; thioether N-15) | 6.28 | 6.97 |  | 
CC[C@H](C)[C@@H]1NC(=O)[C@H](Cc2ccc(OC)cc2)NC(=O)[C@H](Cc2ccc(O)cc2)NC(=O)[C@H](CC(N)=O)NC(=O)[C@H](Cc2cn(C)c3ccccc23)NC(=O)[C@H](C(C)C)NC(=O)[C@H](Cc2cccc(Cl)c2)N(C)C(=O)[C@H](C(C)C)NC(=O)[C@H](C)NC(=O)CSC[C@@H](C(=O)NCCOCCOCCOCCOCCC(N)=O)NC(=O)[C@H](Cc2ccc(O)cc2)N(C)C(=O)[C@H](Cc2ccncc2)NC(=O)[C@H](CCCNC(=N)N)NC(=O)[C@H](CCCCN)NC(=O)[C@H]([C@@H](C)CC)NC1=O [compound 130] | 8.76 | 9.17 |  | 
CC[C@H](C)[C@@H]1NC(=O)[C@H](Cc2ccc(OC)cc2)NC(=O)[C@H](Cc2ccc(N)nc2)NC(=O)[C@H](CC(N)=O)NC(=O)[C@H](Cc2cn(CC(=O)O)c3ccccc23)NC(=O)[C@H](C(C)C)NC(=O)[C@H](Cc2cccc(Cl)c2)N(C)C(=O)[C@H](C(C)C)NC(=O)[C@H](C)NC(=O)CSC[C@@H](C(=O)NCCOCCOCCOCCOCCC(N)=O)NC(=O)[C@H](Cc2ccc(O)cc2)N(C)C(=O)[C@H](Cc2ccncc2)NC(=O)[C@H](CCCCN2CCOCC2)NC(=O)[C@H](CCCCN2CCOCC2)NC(=O)[C@H]([C@@H](C)CC)NC1=O [compound 6] ({CH2CO}-AV[NMePhe(3-Cl)]V[Trp(1-CH2COOH)]N[3Pal(6-NH2)]Y(Me)II[Nle(6-morpholino)][Nle(6-morpholino)][4Pal][NMeY]C[PEG4]-NH2; thioether N-15) |  |  | 7.68 | 8.18
CC[C@H](C)[C@@H]1NC(=O)[C@H](Cc2ccc(OCC(=O)N3CCN(CC(=O)O)CC3)cc2)NC(=O)[C@H](Cc2ccc(O)cc2)NC(=O)[C@H](CC(N)=O)NC(=O)[C@H](Cc2c[nH]c3ncccc23)NC(=O)[C@H](C(C)C)NC(=O)[C@H](Cc2cccc(Cl)c2)N(C)C(=O)[C@H](C(C)C)NC(=O)[C@H](C)NC(=O)CSC[C@@H](C(=O)NCCOCCOCCOCCOCCC(N)=O)NC(=O)[C@H](Cc2ccc(O)cc2)N(C)C(=O)[C@H](Cc2cccc(C(=O)O)c2)NC(=O)[C@H](CCCCN2CCOCC2)NC(=O)[C@H](CCC(N)=O)NC(=O)[C@H]([C@@H](C)CC)NC1=O [compound 24] ({CH2CO}-AV[NMePhe(3-Cl)]V[Trp(7-aza)]NYY(CH2CON(CH2CH2)2NCH2COOH)IIQ[Nle(6-morpholino)][Phe(3-COOH)][NMeY]C[PEG4]-NH2; thioether N-15) |  |  | 7.57 | 8.70

— patent EP4667483A1, “HUMAN TRANSFERRIN RECEPTOR-BINDING PEPTIDE” (JCR Pharmaceuticals Co., Ltd., priority 2023, dated 2024)
